Where a name gives a salt, the structure may show the parent alone.

In data set [1] the target is T1, NMDA receptor glycine site (Rattus norvegicus, UniProt P35439).
T1 construct: fresh brain tissue including cerebral cortex and hippocampus from male Sprague Dawley rats was homogenized; tissue Analytical Biological Services Inc; host or cells: rat brain membranes (cerebral cortex and hippocampus, male Sprague Dawley rats)
The experiment in a line: Test A: Inhibition of binding of [3H]-MDL105,519. As to the method:
Test A: Inhibition of Binding of [^3H]-MDL105,519:
Binding of compounds to the NMDA receptor glycine site may be assessed by measuring the ability of test compounds to inhibit the binding of tritiated MDL105,519 to brain membranes bearing the receptor.
Rat Brain Membranes: The rat brain membranes used in the experiments were obtained from Analytical Biological Services Inc., and were prepared substantially in accordance with the method of B. M. Baron et al., J. Pharmacol. Exp. Ther. 250, 162 (1989). Briefly, fresh brain tissue including cerebral cortex and hippocampus from male Sprague Dawley rats was homogenized in 0.32 M sucrose and centrifuged at low speed to separate cellular membranes from other cellular components. The membranes were then washed 3 times using deionized water, followed by treatment with 0.04% Triton X-100. Finally, membranes were washed six times in 50 mM Tris citrate buffer, pH 7.4, and frozen at −80° C. until use.
[^3]MDL105,519 (72 Ci/mmol) was purchased from Amersham. Cold MDL105,519 was purchased from Sigma/RBI. Binding assays were performed substantially in accordance with the protocol of B. M. Baron et al., J. Pharmacol. Exp. Ther. 279, 62 (1996), as follows. On the day of the experiment, brain membranes were thawed at room temperature and suspended in 50 mM tris acetate buffer, pH 7.4 (“TAB”). Seventy-five micro grams per milliliter protein (by using the BioRad dye) were used for competition binding. The experiments were carried out using 96-well plates. Membranes were incubated with […] of compounds of various concentrations and 1.2 nM [^3H]MDL105,519 for 30 minutes at room temperature in a total volume of 250 μL. Non specific binding was determined by using 100 μM of unlabeled MDL105,519. The unlabeled MDL105,519 and compounds were dissolved as 12.5 mM stock solutions in DMSO. Final DMSO concentration in each well was kept below 1%, which concentration was found not to alter the binding results. After incubation, unbound [^3H]MDL105,519 was removed by filtration onto GF/B Unifilter plates using a Packard harvester. Filters were washed four times with ice cold TAB (total of 1.2 mL buffer). The plates were dried overnight at room temperature and bound radioactivity was measured on a Packard TopCount after the addition of 45 μL per well of the MICROSCINT O.
Human Brain Membranes: Human brain membranes were obtained from Analytical Biological Services Inc., and assays were performed as described for rat membranes.
Data analysis: Data was analyzed using a Microsoft Excel spreadsheet and GraphPad Prizm software and potency of compounds is expressed as the Ki (nM).

On to `O=c1c2ccc(Cl)cc2[nH]c2c(O)nn(CC#Cc3ccncc3)c(=O)c12` (as salt: methanesulfonate) [Ex. 1, 7-Chloro-4-hydroxy-2-(3-(4-pyridyl)prop-2-ynyl)1,2,5,10-tetrahydropyridazino[4,5-b]quinoline-1,10-dione 1,3 methanesulfonate], for which the melting point (as a rule, the temperature, or range, at which the solid turns liquid) lay within 238 to 241 °C.
With `O=c1c2ccc(Cl)cc2[nH]c2c(O)nn(CC#Cc3ccncc3)c(=O)c12` [Ex. 1, 7-Chloro-4-hydroxy-2-(3-(4-pyridyl)prop-2-ynyl)1,2,5,10-tetrahydropyridazino[4,5-b]quinoline-1,10-dione 1,3 methanesulfonate], the Ki (usually the dissociation constant of the complex between target and ligand, obtained from inhibition or displacement) in data set [1] worked out at 67.6 nM.
In turn, `O=c1c2ccc(Cl)cc2[nH]c2c(O)nn(CC#Cc3cccc(Cl)c3)c(=O)c12` [Ex. 2, 7-Chloro-4-hydroxy-2-[3-(3-chlorophenyl)prop-2-ynyl]-1,2,5,10-tetrahydropyridazino[4,5-b]quinoline-1,10-dione] had a melting point of 220 to 222 °C. Further, the Ki in data set [1] was 7.86 nM.
The like results for `O=c1c2ccc(Cl)cc2[nH]c2c(O)nn(CC#Cc3ccc(Cl)cc3)c(=O)c12` [Ex. 3, 7-Chloro-4-hydroxy-2-[3-(4-chlorophenyl)prop-2-ynyl]-1,2,5,10-tetrahydropyridazino[4,5-b]quinoline-1,10-dione] were, in that order, 251 to 252 °C and 86.6 nM.
The like results for `O=c1c2ccc(Cl)cc2[nH]c2c(O)nn(CC#Cc3ccccc3Cl)c(=O)c12` [Ex. 4, 7-Chloro-4-hydroxy-2-[3-(2-chlorophenyl)prop-2-ynyl]-1,2,5,10-tetrahydropyridazino[4.5-b]quinoline-1.10-dione] were, in that order, 255 to 257 °C and 113 nM.
The like results for `CS(=O)(=O)O.O=c1c2ccc(Cl)cc2[nH]c2c(O)nn(CC#Cc3cccnc3)c(=O)c12` [Ex. 5, 7-Chloro-4-hydroxy-2-(3-(3-pyridyl)prop-2-ynyl)-1,2,5,10-tetrahydropyridazino[4,5-b]quinoline-1,10-dione methanesulfonate] were, in that order, 227 to 229 °C and 14 nM.
For `O=c1c2ccc(Cl)cc2[nH]c2c(O)nn(CC#Cc3ccc(Cl)nc3)c(=O)c12` [Ex. 6, 7-Chloro-2-[3-(6-chloro(3-pyridyl))prop-2-ynyl]-4-hydroxy-2,5-dihydropyridazino[4,5-b]quinoline-1,10-dione], the affinity in data set [1], expressed as Ki, was 106 nM.
